Assay results from patent publication US20230321085A1, “COMPOUND FOR USE IN THE TREATMENT OF DRY MOUTH” (ASAHI PHARMA CO., LTD., priority 2020, published 2023).

Assays:
awake rats = assay: effect on salivation in awake rats (oral administration); type: in vivo, rat; details: for duration of effect on salivation: oral administration to awake rats
Method: Pilocarpine therefore alleviates the dry mouth symptoms, but it leads to hyperhidrosis as a further side effect. Moreover, experiments in rats have shown that the effect of pilocarpine on salivation is only short-lived and that initial salivation levels are approached after about 60 minutes (FIG. 1).
Moreover, experiments have shown that its effect on salivation is long-lasting (FIG. 2 as well as FIGS. 3, 4 and 5).

[1] = system: healthy non-elderly male and female subjects; assay: single ascending oral dose clinical study of the compound of the invention (first part); type: in vivo, human; details: single oral dose 1, 3, 10, 30, 100, 150 mg
Method: In the first part of a randomized, subject- and investigator-blinded, placebo-controlled, single ascending oral dose, parallel group study comprising of 7 cohorts (cohorts 1.1 to 1.7) the compound of the invention was administered at dose levels of 1, 3, 10, 30, 100, and 150 mg. Each cohort consisted of 8 healthy non-elderly male and female subjects who were randomized to receive the compound or matching placebo in a 3:1 ratio.
After a screening period of 21 days, eligible subjects who had signed an informed consent form (ICF) to participate in the study were residential for a single treatment period of 5 days/4 nights. Subjects were admitted to the clinical unit on day −1. After randomization on day 1, subjects received a single oral dose of the compound or matching placebo under fasting. Each cohort was completed with an end-of-study visit, which took place 5 to 9 days after the last pharmacokinetic sample had been collected (or early discontinuation from the study).

[2] = system: healthy non-elderly and elderly male and female subjects; assay: multiple ascending oral dose clinical study of the compound of the invention (second part); type: in vivo, human; details: multiple oral doses 10, 30, 100, 150 mg
Method: The second part of the study investigated, multiple ascending oral doses in 4 cohorts (cohorts 2.1 to 2.4). Each cohort consisted of 12 healthy non-elderly male and female subjects, one optional cohort (cohort 2.5) consisting of 12 healthy nonelderly male and female subjects and one cohort (cohort 2.6) consisting of 12 healthy elderly male and female subjects who were randomized to receive the compound or matching placebo in a 3:1 ratio.
Actual dose levels were 10, 30, 100 and 150 mg of the compound (cohorts 2.1 to 2.4, respectively). The optional cohort 2.5 was not enrolled. The actual dose level for the elderly cohort (cohort 2.6) was 150 mg of the compound.
Sentinel dosing was employed for all cohorts. The first 2 subjects within a cohort (1 subject received the compound and 1 subject received matching placebo) were dosed at least 5 minutes apart. These 2 subjects were monitored for safety for 48 hours after receiving the first dose while dosing was continued. The remaining 10 subjects (8 with the compound and 2 with matching placebo) were divided into 2 sub-cohorts and were dosed at least 48 hours after the first 2 subjects with 48 hours between the 2 sub-cohorts.

[3] = clinical study with a reference M3 PAM (similar to first study in Example 2); type: in vivo, human; details: dose levels of 1, 3, 10, 30 and 90 mg, FIG. 6
Method: In a study similar to the first study in Example 2, a known M3 positive allosteric modulator reference compound (example 8 of EP 2 963 036) with the following structure
was administered in dose levels of 1, 3, 10, 30 and 90 mg.

healthy subjects = assay: Phase 1 study of the effect of pilocarpine on salivary secretion in healthy subjects; type: in vivo, human; details: for participants reporting hyperhidrosis as side effect: periods 1 to 4
Method: A Phase 1 study to investigate the effect of pilocarpine on salivary secretion was conducted in 12 healthy subjects. The study was conducted as a randomized, subject- and investigator-blinded, placebo-controlled, oral dose clinical study using a 5-way balanced extra period design. Pilocarpine capsules containing 2.5 mg were administered orally (1 capsule for a 2.5 mg dose, 2 capsules for a dose of 5.0 mg pilocarpine and 4 capsules for a dose of 10 mg pilocarpine). Subjects were admitted to the clinical unit on day 1 and were residential for a period of 6 days and 5 nights. Subjects were randomized to 1 of 4 treatment sequences on day 1 prior to study drug administration. Each study period was approximately 1 day and subjects received the different oral doses of the study drug (pilocarpine or placebo to match) in periods 1 through 5. There was a 4-hour saliva collection period following every dose and a washout period of at least 24 hours between doses. To assess the pharmacodynamic effect of pilocarpine on saliva secretion, saliva samples were collected over 5-minute intervals from pre-dose until 4 hours post-dose at the timepoints 0.5, 0.75, 1.0, 1.5, 2.0, 3.0 and 4.0 h.

SMILES	duration of effect on salivation (awake rats) [h]	hyperhidrosis as a side effect [1]	salivary secretion rates ([1]; FIG. 4)	hyperhidrosis as a side effect [2]	salivary secretion rates ([2]; FIG. 5)	impact on salivation [3]	time after which initial salivation levels are approached (awake rats; rats, FIG. 1)	sweating (healthy subjects; clinically relevant doses (5 mg and 10 mg qd))	effect on salivation (healthy subjects; human trials, 2.5, 5 and 10 mg pilocarpine)	participants reporting hyperhidrosis as side effect (healthy subjects; pilocarpine dose of 5 mg) [%]	participants reporting hyperhidrosis as side effect (healthy subjects; pilocarpine dose of 10 mg) [%]
C[C@@H]1CCCN1Cc1sc(NC(=O)c2cnc(N3CCN(CCC(=O)O)[C@@H](C)C3)cn2)nc1-c1cc(Cl)cs1 [compound of the invention]	≥ 8	not reported	increased salivary secretion rates	not reported	increased salivary secretion rates						
CC[C@@H]1CCCN1Cc1sc(NC(=O)c2cnc(N3CCC(C(=O)O)CC3)cn2)nc1-c1ccc(OC)c(C(F)(F)F)c1 [example 8 of EP 2 963 036]						do not significantly impact salivation					
CC[C@@H]1C(=O)OC[C@@H]1Cc1cncn1C [pilocarpine]	≤ 1						about 60 minutes	a significant number of the patients suffered from sweating	increased salivation	8.3	50
